How the values were obtained:
Aphis craccivora = experiment: Efficacy test against Aphis craccivora (spray on cowpea plants); assay type: in vivo; conditions: 125 ppm sprayed on cowpea plants infested with nymphs; 25° C., humidity 60%; 4 days after spraying
Procedure: The insecticidal rate was calculated by the following formula. Insecticidal rate (%)=(number of dead insects/number of tested insects)×100 Cowpea plants were raised in No. 3 pots, and nymphs of Aphis craccivora were inoculated on the primary leaves. The emulsion (1) was diluted with water so that the concentration of the compound of the present invention was 125 ppm, and the diluent was sprayed on the cowpea plants infested with nymphs of Aphis craccivora. The cowpea plants were placed in a thermostatic chamber with a temperature of 25° C. and a humidity of 60%. […] The test was repeated twice.

Plutella xylostella = experiment: Efficacy test against Plutella xylostella (cabbage leaf immersion); assay type: in vivo; conditions: 125 ppm, cabbage leaf immersed 30 seconds; second instar larvae; 25° C., humidity 60%; 3 days after insect release
Procedure: The insecticidal rate was calculated by the following formula. Insecticidal rate (%)=(number of dead insects/number of tested insects)×100 The emulsion (1) was diluted with water so that the concentration of the compound of the present invention was 125 ppm. A cabbage leaf was immersed in the diluent for 30 seconds. This cabbage leaf was placed in a petri dish. Five second instar larvae of Plutella xylostella were released therein. The petri dish was placed in a thermostatic chamber with a temperature of 25° C. and a humidity of 60%. […] The test was repeated twice.

Structure (SMILES)	melting point [°C]	insecticidal rate (Aphis craccivora) [%]	insecticidal rate (Plutella xylostella) [%]
Br.CCS(=O)(=O)c1cnc(-c2ncccn2)nc1-c1ccc(O)cn1	234 to 239		
CCS(=O)(=O)c1cnc(-c2ncccn2)nc1-c1ccc(OCC(F)(F)F)nn1 [2-8]	209 to 210		
CCS(=O)(=O)c1cnc(NC(=O)C(F)(F)F)nc1-c1ccc(OCC(F)(F)C(F)(F)C(F)(F)F)cn1 [1-80]		≥ 80	≥ 80
CCS(=O)(=O)c1cnc(O)cc1-c1ccc(OCC(F)(F)C(F)(F)F)cn1 [2-11]	212 to 214		
CCS(=O)(=O)c1cnc(-c2ncn(C)n2)nc1-c1ccc(C(F)(F)C(F)(F)C(F)(F)C(F)(F)F)nn1	182 to 185		
CCS(=O)(=O)c1cnc(N)nc1-c1ccc(C(F)(F)C(F)(F)C(F)(F)C(F)(F)F)nn1	186 to 188		
